Experimental data as given in ChEMBL document CHEMBL4699664, “Rational Design of 2-Chloroadenine Derivatives as Highly Selective Phosphodiesterase 8A Inhibitors” (J Med Chem, 2020).
≈ marks a conversion by molar mass, not a printed value. Each block holds one molecule with its values, some of them ahead of it. Calls of active or inactive are those of the source. No cut-off for these calls is given here.

Experiments:
[1] = biological target: T1, High affinity cAMP-specific and IBMX-insensitive 3',5'-cyclic phosphodiesterase 8A (Homo sapiens, UniProt O60658); test: Inhibition of PDE8A1 (480 to 820 residues) (unknown origin) expressed in Escherichia coli BL21 using [3H]-cAMP substrate at 1 uM incubated for 15 mins by liquid scintillation counting method relative to control
T1 sequence (O60658 whole entry, the tested form may be a part): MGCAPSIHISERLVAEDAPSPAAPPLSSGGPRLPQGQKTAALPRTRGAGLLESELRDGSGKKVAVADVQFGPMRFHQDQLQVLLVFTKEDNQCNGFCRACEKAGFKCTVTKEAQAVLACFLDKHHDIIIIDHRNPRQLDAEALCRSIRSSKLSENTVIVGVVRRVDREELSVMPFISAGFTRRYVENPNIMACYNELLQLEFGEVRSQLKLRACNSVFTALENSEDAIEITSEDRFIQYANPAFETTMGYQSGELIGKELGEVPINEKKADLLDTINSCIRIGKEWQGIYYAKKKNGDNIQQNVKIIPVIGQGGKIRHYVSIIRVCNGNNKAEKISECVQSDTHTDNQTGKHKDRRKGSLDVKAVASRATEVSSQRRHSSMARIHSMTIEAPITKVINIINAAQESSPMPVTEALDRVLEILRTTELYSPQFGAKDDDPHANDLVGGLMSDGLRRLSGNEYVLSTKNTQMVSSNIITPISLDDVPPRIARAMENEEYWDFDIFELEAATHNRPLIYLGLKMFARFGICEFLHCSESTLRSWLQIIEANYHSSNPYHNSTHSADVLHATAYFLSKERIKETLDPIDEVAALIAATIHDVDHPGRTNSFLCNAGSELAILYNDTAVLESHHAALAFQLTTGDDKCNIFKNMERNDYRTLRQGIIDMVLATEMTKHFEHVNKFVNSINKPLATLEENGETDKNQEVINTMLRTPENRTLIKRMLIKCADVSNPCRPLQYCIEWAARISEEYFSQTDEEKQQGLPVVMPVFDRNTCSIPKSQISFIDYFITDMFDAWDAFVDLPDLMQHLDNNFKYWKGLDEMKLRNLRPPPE

[2] = Oral bioavailability in Sprague-Dawley rat at 10 mg/kg measured upto 24 hrs by LC-MS/MS analysis; type: ADME, organism-based; details: in vivo
Mus musculus [3] = test: Anti-VaD activity against UCCAO-induced spatial memory deficient C57BL/6J mouse model assessed as improvement in spatial learning and memory by measuring increased the frequency of platform site crossing at 3 mg/kg, po administered for 21 days by Morris water maze test; type: functional, organism-based; details: time 21.0 day
[4] = Effective permeability of compound by PAMPA-BBB assay; type: ADME; details: read-out: permeability
[5] = Lipophilicity, log P of the compound; type: physicochemical; details: octanol/water
[6] = MRT (0 to t) in Sprague-Dawley rat at 2.5 mg/kg, iv measured upto 24 hrs by LC-MS/MS analysis; type: ADME, organism-based; details: in vivo
[7] = Cmax in Sprague-Dawley rat at 10 mg/kg, po measured upto 24 hrs by LC-MS/MS analysis; type: ADME, organism-based; design: route oral, dose 10 mg/kg, time <=24; details: in vivo
[8] = biological target: High affinity 3',5'-cyclic-AMP phosphodiesterase 7A (Homo sapiens, UniProt Q13946); test: Inhibition of PDE7A1 (130-482 residues) (unknown origin) expressed in Escherichia coli BL21 using [3H]-cAMP substrate incubated for 15 mins by liquid scintillation counting method
Sequence of High affinity 3',5'-cyclic-AMP phosphodiesterase 7A (Q13946 whole entry, the tested form may be a part): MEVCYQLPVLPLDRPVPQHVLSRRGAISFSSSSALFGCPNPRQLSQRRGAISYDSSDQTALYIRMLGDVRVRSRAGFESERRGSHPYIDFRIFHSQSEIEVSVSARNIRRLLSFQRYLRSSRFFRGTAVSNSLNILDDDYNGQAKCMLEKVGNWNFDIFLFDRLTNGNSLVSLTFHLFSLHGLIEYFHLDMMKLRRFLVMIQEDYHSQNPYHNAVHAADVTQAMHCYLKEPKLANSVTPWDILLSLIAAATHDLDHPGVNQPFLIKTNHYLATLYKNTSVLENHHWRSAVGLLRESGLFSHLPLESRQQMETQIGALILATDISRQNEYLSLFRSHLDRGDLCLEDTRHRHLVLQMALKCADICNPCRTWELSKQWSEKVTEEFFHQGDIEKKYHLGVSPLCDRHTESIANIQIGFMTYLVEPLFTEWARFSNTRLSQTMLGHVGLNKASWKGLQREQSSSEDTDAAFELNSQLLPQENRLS

[9] = Half life in Sprague-Dawley rat at 2.5 mg/kg, iv measured upto 24 hrs by LC-MS/MS analysis; type: ADME, organism-based; details: in vivo
[10] = biological target: High affinity cGMP-specific 3',5'-cyclic phosphodiesterase 9A (Homo sapiens, UniProt O76083); test: Inhibition of PDE9A2 (181-506 residues) (unknown origin) expressed in Escherichia coli BL21 using [3H]-cAMP substrate incubated for 15 mins by liquid scintillation counting method
Sequence of High affinity cGMP-specific 3',5'-cyclic phosphodiesterase 9A (O76083 whole entry, the tested form may be a part): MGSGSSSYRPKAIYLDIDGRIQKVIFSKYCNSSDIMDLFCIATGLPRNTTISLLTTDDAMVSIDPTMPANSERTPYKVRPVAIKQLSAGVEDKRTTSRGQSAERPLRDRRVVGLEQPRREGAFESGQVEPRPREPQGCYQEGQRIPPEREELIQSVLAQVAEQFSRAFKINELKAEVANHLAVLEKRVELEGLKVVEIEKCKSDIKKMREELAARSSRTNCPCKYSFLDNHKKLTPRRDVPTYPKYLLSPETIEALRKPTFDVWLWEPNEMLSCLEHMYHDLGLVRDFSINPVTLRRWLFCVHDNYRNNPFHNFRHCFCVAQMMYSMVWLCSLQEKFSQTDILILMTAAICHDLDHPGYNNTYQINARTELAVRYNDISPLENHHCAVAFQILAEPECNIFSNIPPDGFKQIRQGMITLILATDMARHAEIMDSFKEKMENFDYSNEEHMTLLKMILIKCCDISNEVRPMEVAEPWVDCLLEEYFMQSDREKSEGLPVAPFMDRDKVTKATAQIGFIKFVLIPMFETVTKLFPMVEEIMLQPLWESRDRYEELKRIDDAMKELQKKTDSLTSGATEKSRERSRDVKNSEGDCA

[11] = Half life in Sprague-Dawley rat at 10 mg/kg, po measured upto 24 hrs by LC-MS/MS analysis; type: ADME, organism-based; details: in vivo
[12] = AUC (0 to t) in Sprague-Dawley rat at 2.5 mg/kg, iv measured upto 24 hrs by LC-MS/MS analysis; type: ADME, organism-based; design: route intravenous, dose 2.5 mg/kg, time <=24; details: in vivo
[13] = Inhibition of PDE5A1 (535-860 residues) (unknown origin) expressed in Escherichia coli BL21 using [3H]-cAMP substrate incubated for 15 mins by liquid scintillation counting method; design: species or system Homo sapiens
[14] = Dissociation constant, pKa of the compound; type: physicochemical
Mus musculus [15] = test: Anti-VaD activity against UCCAO-induced spatial memory deficient C57BL/6J mouse model assessed as improvement in spatial learning and memory by measuring increase in latency time at 3 mg/kg, po administered for 21 days by passive avoidance test; type: functional, organism-based; details: time 21.0 day
Cytochrome P450 2C9 = Cytochrome P450 2C9 (Homo sapiens, UniProt P11712); test: Inhibition of CYP2C9 in human liver microsomes in presence of NADPH; type: ADME
Sequence of Cytochrome P450 2C9 (P11712 whole entry): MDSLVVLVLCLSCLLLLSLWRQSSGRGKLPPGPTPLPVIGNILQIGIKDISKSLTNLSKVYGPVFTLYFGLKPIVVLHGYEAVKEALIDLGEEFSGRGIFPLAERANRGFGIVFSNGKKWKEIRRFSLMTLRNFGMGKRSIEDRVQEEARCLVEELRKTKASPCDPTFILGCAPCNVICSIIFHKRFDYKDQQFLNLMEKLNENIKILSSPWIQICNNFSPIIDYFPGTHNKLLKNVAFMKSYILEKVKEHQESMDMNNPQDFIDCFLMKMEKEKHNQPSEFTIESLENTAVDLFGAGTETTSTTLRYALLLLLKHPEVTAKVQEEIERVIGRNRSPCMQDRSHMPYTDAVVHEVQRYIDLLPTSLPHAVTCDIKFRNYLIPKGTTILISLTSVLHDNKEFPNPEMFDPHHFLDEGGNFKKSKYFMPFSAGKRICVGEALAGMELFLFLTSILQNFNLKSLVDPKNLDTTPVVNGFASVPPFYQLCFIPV

Cytochrome P450 1A2 = biological target: T2, Cytochrome P450 1A2 (Homo sapiens, UniProt P05177); test: Inhibition of CYP1A2 in human liver microsomes in presence of NADPH; type: ADME
T2 sequence (P05177 whole entry): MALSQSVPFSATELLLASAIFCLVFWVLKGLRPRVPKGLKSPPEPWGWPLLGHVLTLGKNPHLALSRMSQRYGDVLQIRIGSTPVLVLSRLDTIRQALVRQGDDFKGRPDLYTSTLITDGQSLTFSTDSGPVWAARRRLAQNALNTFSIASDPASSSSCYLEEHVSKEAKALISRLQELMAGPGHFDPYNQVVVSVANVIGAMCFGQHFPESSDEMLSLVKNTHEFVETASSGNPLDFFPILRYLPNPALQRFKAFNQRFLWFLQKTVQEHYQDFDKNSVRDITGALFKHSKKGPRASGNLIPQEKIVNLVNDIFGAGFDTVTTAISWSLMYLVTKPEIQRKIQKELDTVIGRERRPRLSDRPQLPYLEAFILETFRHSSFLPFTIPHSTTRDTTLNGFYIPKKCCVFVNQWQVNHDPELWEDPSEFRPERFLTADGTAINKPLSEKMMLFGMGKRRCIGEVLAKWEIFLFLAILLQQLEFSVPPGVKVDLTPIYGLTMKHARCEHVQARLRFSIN

[16] = Aqueous solubility of compound at pH 7.3 by HPLC analysis; type: physicochemical; details: aqueous medium
Cytochrome P450 3A4 = Cytochrome P450 3A4 (Homo sapiens, UniProt P08684); test: Inhibition of CYP3A4 in human liver microsomes using midazolam as substrate in presence of NADPH; type: ADME
[17] = MRT (0 to t) in Sprague-Dawley rat at 10 mg/kg, po measured upto 24 hrs by LC-MS/MS analysis; type: ADME, organism-based; details: in vivo
[18] = Tmax in Sprague-Dawley rat at 2.5 mg/kg, iv measured upto 24 hrs by LC-MS/MS analysis; type: ADME, organism-based; details: in vivo
[19] = Tmax in Sprague-Dawley rat at 10 mg/kg, po measured upto 24 hrs by LC-MS/MS analysis; type: ADME, organism-based; details: in vivo
[20] = biological target: cGMP-inhibited 3',5'-cyclic phosphodiesterase 3A (Homo sapiens, UniProt Q14432); test: Inhibition of PDE3A (679-1087 residues) (unknown origin) expressed in Escherichia coli BL21 using [3H]-cAMP substrate incubated for 15 mins by liquid scintillation counting method
[21] = AUC (0 to infinity) in Sprague-Dawley rat at 2.5 mg/kg, iv measured upto 24 hrs by LC-MS/MS analysis; type: ADME, organism-based; design: route intravenous, dose 2.5 mg/kg, time <=24; details: in vivo
Cytochrome P450 2C19 = Cytochrome P450 2C19 (Homo sapiens, UniProt P33261); test: Inhibition of CYP2C19 in human liver microsomes in presence of NADPH; type: ADME
Sequence of Cytochrome P450 2C19 (P33261 whole entry): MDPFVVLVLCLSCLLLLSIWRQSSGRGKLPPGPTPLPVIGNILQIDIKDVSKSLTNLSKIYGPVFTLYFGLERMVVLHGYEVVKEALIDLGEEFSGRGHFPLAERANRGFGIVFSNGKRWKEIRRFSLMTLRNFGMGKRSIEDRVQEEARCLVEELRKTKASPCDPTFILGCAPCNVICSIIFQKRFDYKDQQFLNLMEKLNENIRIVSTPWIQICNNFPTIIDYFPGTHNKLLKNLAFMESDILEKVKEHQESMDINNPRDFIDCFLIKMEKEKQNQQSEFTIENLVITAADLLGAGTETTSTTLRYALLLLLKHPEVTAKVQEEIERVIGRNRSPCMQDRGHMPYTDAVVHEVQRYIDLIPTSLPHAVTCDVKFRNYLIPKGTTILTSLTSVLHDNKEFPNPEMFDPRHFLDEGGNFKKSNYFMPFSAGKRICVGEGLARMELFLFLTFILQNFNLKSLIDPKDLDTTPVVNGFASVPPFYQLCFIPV

[22] = biological target: Voltage-gated inwardly rectifying potassium channel KCNH2 (Homo sapiens, UniProt Q12809); test: Inhibition of human ERG expressed in CHO cells by patch clamp method; type: cell-based
Cytochrome P450 2D6 = Cytochrome P450 2D6 (Homo sapiens, UniProt P10635); test: Inhibition of CYP2D6 in human liver microsomes in presence of NADPH; type: ADME
Sequence of Cytochrome P450 2D6 (P10635 whole entry): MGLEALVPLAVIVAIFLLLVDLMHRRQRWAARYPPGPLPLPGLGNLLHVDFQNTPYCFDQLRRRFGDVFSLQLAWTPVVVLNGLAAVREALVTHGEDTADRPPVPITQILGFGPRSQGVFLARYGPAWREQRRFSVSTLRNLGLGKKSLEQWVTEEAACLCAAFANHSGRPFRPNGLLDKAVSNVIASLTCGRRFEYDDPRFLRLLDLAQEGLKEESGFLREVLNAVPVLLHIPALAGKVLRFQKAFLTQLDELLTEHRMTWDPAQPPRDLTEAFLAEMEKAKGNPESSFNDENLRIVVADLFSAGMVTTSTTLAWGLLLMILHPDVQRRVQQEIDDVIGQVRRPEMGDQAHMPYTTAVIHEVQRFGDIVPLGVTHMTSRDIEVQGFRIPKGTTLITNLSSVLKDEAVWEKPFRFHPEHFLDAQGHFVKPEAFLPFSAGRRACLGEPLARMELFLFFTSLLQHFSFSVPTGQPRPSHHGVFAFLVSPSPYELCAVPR

[23] = Cmax in Sprague-Dawley rat at 2.5 mg/kg, iv measured upto 24 hrs by LC-MS/MS analysis; type: ADME, organism-based; design: route intravenous, dose 2.5 mg/kg, time <=24; details: in vivo
Mus musculus [24] = test: Anti-VaD activity against UCCAO-induced spatial memory deficient C57BL/6J mouse model assessed as improvement in spatial learning and memory by measuring decrease in error rate at 3 mg/kg, po administered for 21 days by passive avoidance test; type: functional, organism-based; details: time 21.0 day
Mus musculus [25] = test: Anti-VaD activity against UCCAO-induced spatial memory deficient C57BL/6J mouse model assessed as improvement in spatial learning and memory by measuring reduction in escape latency at 3 mg/kg, po administered for 21 days by Morris water maze test; type: functional, organism-based; details: time 21.0 day
[26] = AUC (0 to t) in Sprague-Dawley rat at 10 mg/kg, po measured upto 24 hrs by LC-MS/MS analysis; type: ADME, organism-based; design: route oral, dose 10 mg/kg, time <=24; details: in vivo
[27] = AUC (0 to infinity) in Sprague-Dawley rat at 10 mg/kg, po measured upto 24 hrs by LC-MS/MS analysis; type: ADME, organism-based; design: route oral, dose 10 mg/kg, time <=24; details: in vivo
[28] = biological target: Dual 3',5'-cyclic-AMP and -GMP phosphodiesterase 11A (Homo sapiens, UniProt Q9HCR9); test: Inhibition of PDE11A (588-911 residues) (unknown origin) expressed in Escherichia coli BL21 using [3H]-cAMP substrate incubated for 15 mins by liquid scintillation counting method
Sequence of Dual 3',5'-cyclic-AMP and -GMP phosphodiesterase 11A (Q9HCR9 whole entry, the tested form may be a part): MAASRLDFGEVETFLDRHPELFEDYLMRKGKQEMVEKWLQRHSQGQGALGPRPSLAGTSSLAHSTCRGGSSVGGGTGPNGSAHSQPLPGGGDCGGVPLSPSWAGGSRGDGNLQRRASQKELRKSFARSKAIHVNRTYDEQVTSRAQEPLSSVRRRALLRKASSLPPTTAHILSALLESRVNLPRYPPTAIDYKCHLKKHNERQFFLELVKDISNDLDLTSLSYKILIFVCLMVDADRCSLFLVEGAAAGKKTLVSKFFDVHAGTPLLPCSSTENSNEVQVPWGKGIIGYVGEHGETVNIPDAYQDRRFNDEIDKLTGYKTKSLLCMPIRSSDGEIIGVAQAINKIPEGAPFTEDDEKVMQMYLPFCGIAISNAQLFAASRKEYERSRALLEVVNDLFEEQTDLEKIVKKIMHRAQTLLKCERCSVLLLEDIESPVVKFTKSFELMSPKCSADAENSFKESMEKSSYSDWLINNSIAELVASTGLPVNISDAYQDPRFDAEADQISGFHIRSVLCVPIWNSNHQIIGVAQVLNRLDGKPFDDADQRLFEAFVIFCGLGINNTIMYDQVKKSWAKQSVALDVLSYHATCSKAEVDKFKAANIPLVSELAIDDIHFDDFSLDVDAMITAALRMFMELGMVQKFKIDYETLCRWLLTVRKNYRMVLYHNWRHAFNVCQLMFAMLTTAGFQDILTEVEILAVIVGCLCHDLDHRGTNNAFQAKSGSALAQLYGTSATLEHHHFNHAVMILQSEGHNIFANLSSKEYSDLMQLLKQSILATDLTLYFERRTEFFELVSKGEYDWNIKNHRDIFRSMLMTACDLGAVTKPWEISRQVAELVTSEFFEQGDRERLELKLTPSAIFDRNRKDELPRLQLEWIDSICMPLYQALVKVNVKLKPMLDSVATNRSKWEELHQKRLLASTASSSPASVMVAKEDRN

[29] = Protein binding in human plasma; type: ADME, cell-free; details: read-out: PPB (converted)
[30] = biological target: Dual specificity calcium/calmodulin-dependent 3',5'-cyclic nucleotide phosphodiesterase 1B (Homo sapiens, UniProt Q01064); test: Inhibition of PDE1B (146-506 residues) (unknown origin) expressed in Escherichia coli BL21 using [3H]-cAMP substrate incubated for 15 mins by liquid scintillation counting method
Sequence of Dual specificity calcium/calmodulin-dependent 3',5'-cyclic nucleotide phosphodiesterase 1B (Q01064 whole entry, the tested form may be a part): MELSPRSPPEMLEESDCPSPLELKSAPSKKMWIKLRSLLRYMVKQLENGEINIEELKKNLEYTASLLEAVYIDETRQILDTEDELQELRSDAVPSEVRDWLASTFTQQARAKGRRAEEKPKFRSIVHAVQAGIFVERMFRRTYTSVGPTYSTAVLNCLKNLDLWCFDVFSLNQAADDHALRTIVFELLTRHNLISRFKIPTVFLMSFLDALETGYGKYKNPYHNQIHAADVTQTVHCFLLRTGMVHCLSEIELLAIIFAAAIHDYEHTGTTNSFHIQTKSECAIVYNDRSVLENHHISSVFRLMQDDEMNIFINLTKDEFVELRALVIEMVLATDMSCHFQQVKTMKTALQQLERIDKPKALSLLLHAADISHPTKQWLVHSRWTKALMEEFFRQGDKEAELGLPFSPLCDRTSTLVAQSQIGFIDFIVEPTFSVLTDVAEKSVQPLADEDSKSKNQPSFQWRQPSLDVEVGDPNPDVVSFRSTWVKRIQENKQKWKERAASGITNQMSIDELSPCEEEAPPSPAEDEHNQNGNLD

Mus musculus [31] = test: Anti-VaD activity against UCCAO-induced spatial memory deficient C57BL/6J mouse model assessed as improvement in spatial learning and memory by measuring increased the residence time in the platform area at 3 mg/kg, po administered for 21 days by Morris water maze test; type: functional, organism-based; details: time 21.0 day
Mus musculus [32] = test: Anti-VaD activity against UCCAO-induced spatial memory deficient C57BL/6J mouse model assessed as improvement in spatial learning and memory by measuring increased the frequency of platform site crossing at 1 mg/kg, po administered for 21 days by Morris water maze test; type: functional, organism-based; details: time 21.0 day
Mus musculus [33] = test: Anti-VaD activity against UCCAO-induced spatial memory deficient C57BL/6J mouse model assessed as improvement in spatial learning and memory by measuring decrease in error rate at 1 mg/kg, po administered for 21 days by passive avoidance test; type: functional, organism-based; details: time 21.0 day
Mus musculus [34] = test: Anti-VaD activity against UCCAO-induced spatial memory deficient C57BL/6J mouse model assessed as improvement in spatial learning and memory by measuring reduction in escape latency at 1 mg/kg, po administered for 21 days by Morris water maze test; type: functional, organism-based; details: time 21.0 day
Mus musculus [35] = test: Anti-VaD activity against UCCAO-induced spatial memory deficient C57BL/6J mouse model assessed as improvement in spatial learning and memory by measuring increased the residence time in the platform area at 1 mg/kg, po administered for 21 days by Morris water maze test; type: functional, organism-based; details: time 21.0 day
Mus musculus [36] = test: Anti-VaD activity against UCCAO-induced spatial memory deficient C57BL/6J mouse model assessed as improvement in spatial learning and memory by measuring increase in latency time at 1 mg/kg, po administered for 21 days by passive avoidance test; type: functional, organism-based; details: time 21.0 day
[37] = biological target: T1, High affinity cAMP-specific and IBMX-insensitive 3',5'-cyclic phosphodiesterase 8A; test: Inhibition of PDE8A1 (480 to 820 residues) (unknown origin) expressed in Escherichia coli BL21 using [3H]-cAMP substrate incubated for 15 mins by liquid scintillation counting method

- inhibition [1]: 14%
SMILES: Cc1cccc(Cn2cnc3c(N)nc(Cl)nc32)n1

- bioavailability [2]: 47%
- Papp [4]: 6 ×10⁻⁶ cm/s
- logP [5]: 3.84
- MRT last at 24 h [6]: 4.48 h
- Cmax [7]: 1940 ng/mL
- IC50 [8]: > 10 µM
- half-life [9]: 2.36 h
- IC50 [10]: > 10 µM
- half-life [11]: 2.82 h
- AUC(0-t) at 24 h [12]: 9410 ng·h/mL
- IC50 [13]: > 10 µM
- pKa [14]: 3.69
- IC50 (Cytochrome P450 2C9): > 25 µM
- IC50 (Cytochrome P450 1A2): > 25 µM
- solubility [16]: 108 µg/mL (≈ 304 µM)
- IC50 (Cytochrome P450 3A4): > 25 µM
- MRT last at 24 h [17]: 7.2 h
- Tmax [18]: 8.4 min
- Tmax [19]: 4 h
- IC50 [20]: > 10 µM
- AUC(0-inf) [21]: 9420 ng·h/mL
- IC50 (Cytochrome P450 2C19): > 25 µM
- IC50 (Cytochrome P450 2D6): > 25 µM
- Cmax [23]: 2190 ng/mL
- AUC(0-t) at 24 h [26]: 17500 ng·h/mL
- AUC(0-inf) [27]: 17600 ng·h/mL
- IC50 [28]: > 10 µM
- fraction unbound [29]: 0.22
- IC50 [30]: > 10 µM
SMILES: C[C@@H](c1cc(OCC(F)F)ccn1)n1cnc2c(N)nc(Cl)nc21
- Activity (Mus musculus [3]): Active
- Activity (Mus musculus [15]): Active
- IC50 [22]: 18 µM
- Activity (Mus musculus [24]): Active
- Activity (Mus musculus [25]): Active
- Activity (Mus musculus [31]): Active

- inhibition [1]: 24%
SMILES: Nc1nc(Cl)nc2c1ncn2Cc1ccccn1

The remaining lines, values behind:

SMILES: COc1cc2c(cc1OC)C(=O)C(CC1CCN(Cc3ccccc3)CC1)C2 (stereo not drawn)
- Activity (Mus musculus [32]): Active
- Activity (Mus musculus [33]): Active
- Activity (Mus musculus [34]): Active
- Activity (Mus musculus [35]): Active
- Activity (Mus musculus [36]): Active

SMILES: Nc1nc(Cl)nc2c1ncn2Cc1cc(OCC(F)F)ccn1
- IC50 [37]: 0.36 µM
